# In US4981792A, “Immunosuppressant compound” (Merck & Co., Inc., priority 1988, dated 1991):
# Where “and” joins values, the source holds several entries; their conditions need not be identical. Equal values may be shown once. Entries after “also recorded” stand apart in the source; their conditions may differ. Read-outs that look alike come from different tables or passages of the source.
# How the values were obtained:
# [1] = reputed; immunosuppressant, vs cyclosporin; cited from earlier work
# [2] = system: mouse T lymphocytes; test: T-cell proliferation assay (ionomycin plus PMA induced, tritiated thymidine uptake); type: cell-based, mouse (C57Bl/6)
# Method: The principle of this assay is to measure the proliferation of mouse T lymphocytes stimulated with the combination of ionomycin plus PMA. A positive sample in this assay will inhibit T-cell proliferation, as indicated by reduced tritiated thymidine uptake.
# Purified demethomycin, as prepared by HPLC above, was dissolved in absolute ethanol at 1 mg/ml.
# Spleens from C57Bl/6 mice were taken under sterile conditions and gently dissociated in ice-cold RPMI 1640 culture medium (GIBCO, Grand Island, N.Y.) supplemented with 10% heat-inactivated fetal calf serum (GIBCO). Cells were pelleted by centrifugation at 1500 rpm for 8 minutes. Contaminating red cells were removed by treating the pellet with ammonium chloride lysing buffer (GIBCO) for 2 minutes at 4° C. Cold medium was added and cells were again centrifuged at 1500 rpm for 8 minutes. T lymphocytes were then isolated by separation of the cell suspension on nylon wool columns as follows: Nylon wool columns were prepared by packing approximately 4 grams of washed and dried nylon wool into 20 ml plastic syringes. The columns were sterilized by autoclaving at 250° F. for 30 minutes. Nylon wool columns were wetted with warm (37° C.) culture medium and rinsed with the same medium. Washed spleen cells resuspended in warm medium were slowly applied to the nylon wool. The columns were then incubated in an upright position at 37° C. for 1 hour. Non-adherent T lymphocytes were eluted from the columns with warm culture medium and the cell suspensions were spun as above.
# Purified T lymphocytes were resuspended at 2.5×10^5 cells/ml in complete culture medium composed of RPMI 1640 medium with 10% neat-inactivated fetal calf serum, […], 1 mM sodium pyruvate, 2×10^-5 M 2-mercaptoethanol and 50 μg/ml gentamycin. Ionomycin was added at 250 ng/ml and PMA at 10 ng/ml. The cell suspension was immediately distributed into 96 well flat-bottom microculture plates (Costar) at 200 μl/well. The control, being the medium without test drug, and various below-indicated dilutions of the sample (above-describedpurified demethomycin; to be tested were then added in triplicate wells at 20 μl/well. L-679,934 was used as a standard. The culture plates were then incubated at 37° C. in a humidified atmosphere of 5% CO2 -95% air for 44 hours. The proliferation of T lymphocytes was assessed by measurement of tritiated thymidine incorporation. After 44 hours of culturing, the cells were pulse-labelled with 2 μCi/well of tritiated thymidine (NEN, Cambridge, MA). After another 4 hours of incubation, cultures were harvested on glass fiber filters using a multiple sample narvester. Radioactivity of filter discs corresponding to individual wells was measured by standard liquid scintillation counting methods (Betacounter). Mean counts per minute of replicate wells were calculated and the results expressed as percent inhibition of tritiated thymidine uptake (proliferation) as follows: [formula]
# 1. Mouse T cell cultures were pulsed with ^3 Hthymidine for 4 hours
# prior to harvesting at 48 hours.
SMILES,effectiveness relative to cyclosporin [1],"inhibition at 0.01 µg/mL ([2]; Mus musculus, T-lymphocyte, read-out: % inhibition of T-cell proliferation (standard))",Reversal of inhibition of T-cell proliferation by recombinant IL2 ([2]; 50 μ/ml of IL2 (recombinant IL2) added at initiation of culture),"inhibition at 0.00029 µg/mL ([2]; Mus musculus, T-lymphocyte, 0.29 ng/ml, harvest at 48 hours)","inhibition at 0.00044 µg/mL ([2]; Mus musculus, T-lymphocyte, 0.44 ng/ml, harvest at 48 hours)","inhibition at 0.00066 µg/mL ([2]; Mus musculus, T-lymphocyte, 0.66 ng/ml, harvest at 48 hours)","inhibition at 0.00099 µg/mL ([2]; Mus musculus, T-lymphocyte, 0.99 ng/ml, harvest at 48 hours)","inhibition at 0.0015 µg/mL ([2]; Mus musculus, T-lymphocyte, 1.5 ng/ml, harvest at 48 hours)","inhibition at 0.0022 µg/mL ([2]; Mus musculus, T-lymphocyte, 2.2 ng/ml, harvest at 48 hours)","inhibition at 0.0033 µg/mL ([2]; Mus musculus, T-lymphocyte, 3.3 ng/ml, harvest at 48 hours)","inhibition at 0.005 µg/mL ([2]; Mus musculus, T-lymphocyte, 5 ng/ml, harvest at 48 hours)","IC50 ([2]; Mus musculus, T-lymphocyte, T-cell proliferation, harvest at 48 hours, read-out: IC50)","IC50 ([2]; Mus musculus, T-lymphocyte, generally in the range, read-out: IC50, general range)",immunosuppressive activity / inhibition of T-cell activation (qualitative) ([2]; T-cell proliferation assay)
"C=CC[C@@H]1/C=C(\C)C[C@H](C)C[C@H](OC)[C@H]2O[C@@](O)(C(=O)C(=O)N3CCCC[C@H]3C(=O)O[C@H](/C(C)=C/[C@@H]3CC[C@@H](O)[C@H](OC)C3)[C@H](C)[C@@H](O)CC1=O)[C@H](C)C[C@@H]2OC [L-679,934, reference compound]",100 times,99%,–,–,–,–,–,–,–,–,–,–,–,–
"C=CC[C@@H]1/C=C(\C)C[C@H](C)C[C@H](OC)[C@H]2O[C@@](O)(C(=O)C(=O)N3CCCC[C@H]3C(=O)O[C@H](/C(C)=C/[C@@H]3CC[C@@H](O)[C@H](O)C3)[C@H](C)[C@@H](O)CC1=O)[C@H](C)C[C@@H]2OC [demethomycin, 31-desmethoxy-31-hydroxy-L-679,934]",–,–,reversed,0%,0%,36.8%,67.1%,80.5%,92.9%,97.2%,98.1%,0.00086 µg/mL and 1.09 nM,0.6 to 1.2 nM,positive inhibition of T-cell activation; also recorded: positive immunosuppressive activity
